Measurements as given in patent US20250382305A1 (PTC THERAPEUTICS, INC., priority 2022, published 2025).

How the values were obtained:
ATXN3 pre-mRNA = experiment: RT-qPCR Assay to Quantify Exon 4 Skipping in ATXN3 pre-mRNA in Cells; format: cell-based; settings: percent exon 4 skipping in ATXN3 pre-mRNA, RT-qPCR of cell lysates; average IC50
In short: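 IC50 derives from a dose-response fit of percent exon 4 skipping, quantified by RT-qPCR on crude lysates. Compounds tested as 7-point 3.16-fold dilutions in duplicate; cells (10,000/well) were exposed for 24 h at 37 °C before lysis.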

[1] = system: Total ATXN3 (tATXN3) protein; experiment: Endogenous Total ATXN3 (tATXN3) Protein Assay (MSD immunoassay of cell lysates); format: cell-based; settings: average IC50, total ATXN3 protein in cell lysate after 48 h with compound (Table 1)
In short: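 By electrochemiluminescent MSD sandwich immunoassay (mouse monoclonal capture, rabbit monoclonal and SULFO-TAG anti-rabbit detection), endogenous ATXN3 was quantified in lysates of cells treated 48 h at 37° C at 10,000 cells/well. Treatment used a 7-point 3.16-fold duplicate dilution series, with average IC50 grouped into star categories.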

IC50 (ATXN3 pre-mRNA) | IC50 [1] | Compound
30 to 300 nM | 30 to 300 nM | 2-((1R,6R)-6-aminocyclohex-3-en-1-yl)-5-chloro-3-methyl-N-(thiophen-2-ylmethyl)thieno[3,2-b]pyridin-7-amine and 2-((1S,6S)-6-aminocyclohex-3-en-1-yl)-5-chloro-3-methyl-N-(thiophen-2-ylmethyl)thieno[3,2-b]pyridin-7-amine [Compound 367]
30 to 300 nM | 30 to 300 nM | N[C@@H]1CC=CC[C@H]1c1sc2c(NCc3ccco3)cc(Cl)nc2c1I [Compound 327, 2-((1R,6R)-6-aminocyclohex-3-en-1-yl)-5-chloro-N-(furan-2-ylmethyl)-3-iodothieno[3,2-b]pyridin-7-amine]
30 to 300 nM | 30 to 300 nM | N[C@@H]1CCCC[C@H]1c1sc2c(NCc3cccs3)cc(Cl)nc2c1Br [Compound 54, 2-((1R,2R)-2-aminocyclohexyl)-3-bromo-5-chloro-N-(thiophen-2-ylmethyl)thieno[3,2-b]pyridin-7-amine]
≤ 30 nM | ≤ 30 nM | N[C@H]1CC=CC[C@@H]1c1sc2c(NCc3cccs3)cc(Cl)nc2c1C#CCCCCO [Compound 235, 6-(2-((1S,6S)-6-aminocyclohex-3-en-1-yl)-5-chloro-7-((thiophen-2-ylmethyl)amino)thieno[3,2-b]pyridin-3-yl)hex-5-yn-1-ol]
30 to 300 nM | 30 to 300 nM | N[C@@H]1CCCC[C@H]1c1c(Cl)c2nc(Cl)nc(NCc3ccccc3)c2n1C(F)F.N[C@H]1CCCC[C@@H]1c1c(Cl)c2nc(Cl)nc(NCc3ccccc3)c2n1C(F)F (mixture of isomers) [Compound 418, 6-((1S,2S)-2-aminocyclohexyl)-N-benzyl-2,7-dichloro-5-(difluoromethyl)-5H-pyrrolo[3,2-d]pyrimidin-4-amine and 6-((1R,2R)-2-aminocyclohexyl)-N-benzyl-2,7-dichloro-5-(difluoromethyl)-5H-pyrrolo[3,2-d]pyrimidin-4-amine]
≤ 30 nM | 30 to 300 nM | N[C@H]1CCCCC[C@@H]1c1sc2c(NCc3cccs3)cc(Cl)nc2c1I [Compound 163, 2-((1S,2S)-2-aminocycloheptyl)-5-chloro-3-iodo-N-(thiophen-2-ylmethyl)thieno[3,2-b]pyridin-7-amine]
≤ 30 nM | ≤ 30 nM | N[C@H]1CCCC[C@@H]1c1sc2c(NCc3ccco3)cc(Cl)nc2c1Cl [Compound 173, 2-((1S,2S)-2-aminocyclohexyl)-3,5-dichloro-N-(furan-2-ylmethyl)thieno[3,2-b]pyridin-7-amine]
> 1000 nM | > 1000 nM | Cc1c([C@@H]2CCCCC[C@H]2N)sc2c(NCc3cccs3)cc(Cl)nc12 [Compound 83, 2-((1R,2R)-2-aminocycloheptyl)-5-chloro-3-methyl-N-(thiophen-2-ylmethyl)thieno[3,2-b]pyridin-7-amine]
30 to 300 nM | 30 to 300 nM | [2H]C1=C([2H])C([2H])([2H])[C@@H](c2sc3c(NCc4ccco4)cc(Cl)nc3c2Cl)[C@H](N)C1([2H])[2H] [Compound 369, 2-((1R,6R)-6-aminocyclohex-3-en-1-yl-2,2,3,4,5,5-d6)-3,5-dichloro-N-(furan-2-ylmethyl)thieno[3,2-b]pyridin-7-amine]
≤ 30 nM | ≤ 30 nM | N[C@H]1CC=CC[C@@H]1c1sc2c(NCc3ccco3)cc(Cl)nc2c1Br [Compound 206, 2-((1S,6S)-6-aminocyclohex-3-en-1-yl)-3-bromo-5-chloro-N-(furan-2-ylmethyl)thieno[3,2-b]pyridin-7-amine]
≤ 30 nM | ≤ 30 nM | [2H]C1=C([2H])C([2H])([2H])[C@H](c2sc3c(NCc4ccco4)cc(Cl)nc3c2C)[C@@H](N)C1([2H])[2H] [Compound 212, 2-((1S,6S)-6-aminocyclohex-3-en-1-yl-2,2,3,4,5,5-d6)-5-chloro-N-(furan-2-ylmethyl)-3-methylthieno[3,2-b]pyridin-7-amine]
30 to 300 nM | 30 to 300 nM | N[C@H]1[C@H](O)CCC[C@@H]1c1sc2c(NCc3cccs3)cc(Cl)nc2c1Cl [Compound 298, (1R,2R,3S)-2-amino-3-(3,5-dichloro-7-((thiophen-2-ylmethyl)amino)thieno[3,2-b]pyridin-2-yl)cyclohexan-1-ol]

Further lines, the compound ahead of its results:

Compound | IC50 (ATXN3 pre-mRNA) | IC50 [1]
N[C@@H]1CC=CC[C@H]1c1sc2c(NCc3cccs3)nc(Cl)nc2c1Br [Compound 385, 6-((1R,6R)-6-aminocyclohex-3-en-1-yl)-7-bromo-2-chloro-N-(thiophen-2-ylmethyl)thieno[3,2-d]pyrimidin-4-amine] | 30 to 300 nM | 30 to 300 nM
N[C@@H]1CCC[C@H]1c1cc2nc(Cl)cc(NCc3cccs3)c2s1 [Compound 112, 2-((1R,2R)-2-aminocyclopentyl)-5-chloro-N-(thiophen-2-ylmethyl)thieno[3,2-b]pyridin-7-amine] | > 1000 nM | > 1000 nM
N[C@H]1CCCC[C@@H]1c1cc2nc(Cl)cc(NCc3cccs3)c2s1 [Compound 21, 2-((1S,2S)-2-aminocyclohexyl)-5-chloro-N-(thiophen-2-ylmethyl)thieno[3,2-b]pyridin-7-amine] | 30 to 300 nM | 30 to 300 nM
N[C@H]1CCCCCC[C@@H]1c1sc2c(NCc3cccs3)cc(Cl)nc2c1I [Compound 122, 2-((1S,2S)-2-aminocyclooctyl)-5-chloro-3-iodo-N-(thiophen-2-ylmethyl)thieno[3,2-b]pyridin-7-amine] | > 1000 nM | > 1000 nM
N[C@@H]1CCCO[C@@H]1c1sc2c(NCc3cccs3)cc(Cl)nc2c1Br [Compound 15, 2-((2S,3R)-3-aminotetrahydro-2H-pyran-2-yl)-3-bromo-5-chloro-N-(thiophen-2-ylmethyl)thieno[3,2-b]pyridin-7-amine] | 300 to 1000 nM | 300 to 1000 nM
2-((2R,3R)-3-amino-5-methylenetetrahydro-2H-pyran-2-yl)-3-bromo-5-chloro-N-(thiophen-2-ylmethyl)thieno[3,2-b]pyridin-7-amine and 2-((2S,3S)-3-amino-5-methylenetetrahydro-2H-pyran-2-yl)-3-bromo-5-chloro-N-(thiophen-2-ylmethyl)thieno[3,2-b]pyridin-7-amine [Compound 259] | 30 to 300 nM | 30 to 300 nM
N[C@@H]1CCCC(F)(F)[C@@H]1c1sc2c(NCc3cccs3)cc(Cl)nc2c1Br.N[C@H]1CCCC(F)(F)[C@H]1c1sc2c(NCc3cccs3)cc(Cl)nc2c1Br (mixture of isomers) [Compound 359, 2-((1R,6R)-6-amino-2,2-difluorocyclohexyl)-3-bromo-5-chloro-N-(thiophen-2-ylmethyl)thieno[3,2-b]pyridin-7-amine and 2-((1S,6S)-6-amino-2,2-difluorocyclohexyl)-3-bromo-5-chloro-N-(thiophen-2-ylmethyl)thieno[3,2-b]pyridin-7-amine] | 30 to 300 nM | 30 to 300 nM
N[C@@H]1CCCO[C@H]1c1c(I)c2nc(Cl)nc(NCc3cccs3)c2n1C(F)F [Compound 416, 6-((2R,3R)-3-aminotetrahydro-2H-pyran-2-yl)-2-chloro-5-(difluoromethyl)-7-iodo-N-(thiophen-2-ylmethyl)-5H-pyrrolo[3,2-d]pyrimidin-4-amine] | 30 to 300 nM | 30 to 300 nM
N[C@H]1CC=CC[C@@H]1c1sc2c(NCc3nccs3)cc(Cl)nc2c1Cl [Compound 178, 2-((1S,6S)-6-aminocyclohex-3-en-1-yl)-3,5-dichloro-N-(thiazol-2-ylmethyl)thieno[3,2-b]pyridin-7-amine] | ≤ 30 nM | ≤ 30 nM
Cc1c([C@H]2COCC[C@@H]2N)sc2c(NCc3ccco3)cc(Cl)nc12 [Compound 260, 2-((3R,4S)-4-aminotetrahydro-2H-pyran-3-yl)-5-chloro-N-(furan-2-ylmethyl)-3-methylthieno[3,2-b]pyridin-7-amine] | ≤ 30 nM | 30 to 300 nM
Cc1c([C@H]2CC=CC[C@@H]2N)sc2c(NCc3ccsc3)cc(Cl)nc12 [Compound 247, 2-((1S,6S)-6-aminocyclohex-3-en-1-yl)-5-chloro-3-methyl-N-(thiophen-3-ylmethyl)thieno[3,2-b]pyridin-7-amine] | 30 to 300 nM | 30 to 300 nM
5-chloro-3-iodo-2-((1R,6R)-6-(methylamino)cyclohex-3-en-1-yl)-N-(thiophen-2-ylmethyl)thieno[3,2-b]pyridin-7-amine and 5-chloro-3-iodo-2-((1S,6S)-6-(methylamino)cyclohex-3-en-1-yl)-N-(thiophen-2-ylmethyl)thieno[3,2-b]pyridin-7-amine [Compound 387] | 300 to 1000 nM | 30 to 300 nM
N[C@@H]1CCCC[C@H]1c1sc2c(NCc3ccccc3)nc(Cl)nc2c1Br [Compound 66, 6-((1R,2R)-2-aminocyclohexyl)-N-benzyl-7-bromo-2-chlorothieno[3,2-d]pyrimidin-4-amine] | > 1000 nM | > 1000 nM
(1R,5R,6S)-5-amino-6-(3-bromo-5-chloro-7-((thiophen-2-ylmethyl)amino)thieno[3,2-b]pyridin-2-yl)cyclohex-2-en-1-ol and (1S,5S,6R)-5-amino-6-(3-bromo-5-chloro-7-((thiophen-2-ylmethyl)amino)thieno[3,2-b]pyridin-2-yl)cyclohex-2-en-1-ol [Compound 329] | 30 to 300 nM | 30 to 300 nM
N[C@H]1CCCO[C@@H]1c1sc2c(NCc3cccs3)cc(Cl)nc2c1Br [Compound 56, 2-((2S,3S)-3-aminotetrahydro-2H-pyran-2-yl)-3-bromo-5-chloro-N-(thiophen-2-ylmethyl)thieno[3,2-b]pyridin-7-amine] | 30 to 300 nM | 300 to 1000 nM
